Measured values as given in patent US9676773B2, “Azaindole derivative” (TAIHO PHARMACEUTICAL CO., LTD., priority 2014, dated 2017).

Legend:
[1] = biological target: T1, purified recombinant human JAK3 protein (Homo sapiens, UniProt P52333); assay: Measurement of JAK3 kinase-inhibitory activity; assay type: biochemical; settings: substrate peptide 1 μM, ATP 5 μM, 25° C., 80 minutes
T1 construct: purchased Carna Biosciences, Inc
T1 sequence (P52333 1-1124): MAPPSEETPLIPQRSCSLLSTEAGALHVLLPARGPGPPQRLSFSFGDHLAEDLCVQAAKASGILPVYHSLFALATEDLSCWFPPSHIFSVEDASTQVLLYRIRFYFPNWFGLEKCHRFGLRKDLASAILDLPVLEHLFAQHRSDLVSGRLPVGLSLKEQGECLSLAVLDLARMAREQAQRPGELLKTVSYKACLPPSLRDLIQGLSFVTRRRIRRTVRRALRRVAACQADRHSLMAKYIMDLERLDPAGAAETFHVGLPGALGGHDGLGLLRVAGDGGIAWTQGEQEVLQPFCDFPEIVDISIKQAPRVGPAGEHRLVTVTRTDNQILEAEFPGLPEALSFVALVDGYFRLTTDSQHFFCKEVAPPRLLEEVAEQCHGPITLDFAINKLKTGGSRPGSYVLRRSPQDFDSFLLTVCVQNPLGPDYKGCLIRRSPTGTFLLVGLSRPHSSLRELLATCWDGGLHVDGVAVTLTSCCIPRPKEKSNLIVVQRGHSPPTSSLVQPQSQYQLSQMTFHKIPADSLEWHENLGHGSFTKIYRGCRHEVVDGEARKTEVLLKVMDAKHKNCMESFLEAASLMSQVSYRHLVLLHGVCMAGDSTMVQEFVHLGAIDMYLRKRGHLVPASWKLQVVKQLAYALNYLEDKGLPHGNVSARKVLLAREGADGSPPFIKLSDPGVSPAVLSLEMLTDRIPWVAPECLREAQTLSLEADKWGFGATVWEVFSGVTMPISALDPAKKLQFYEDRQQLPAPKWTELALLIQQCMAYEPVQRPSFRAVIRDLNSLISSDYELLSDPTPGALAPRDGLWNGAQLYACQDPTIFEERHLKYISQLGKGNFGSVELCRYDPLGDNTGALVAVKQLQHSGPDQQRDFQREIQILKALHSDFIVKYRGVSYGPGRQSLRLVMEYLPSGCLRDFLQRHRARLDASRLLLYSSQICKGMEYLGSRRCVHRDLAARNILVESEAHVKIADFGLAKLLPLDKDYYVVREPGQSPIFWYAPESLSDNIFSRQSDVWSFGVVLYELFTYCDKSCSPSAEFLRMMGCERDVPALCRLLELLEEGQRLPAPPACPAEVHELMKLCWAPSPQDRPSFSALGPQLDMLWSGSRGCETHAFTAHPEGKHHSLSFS
Description: 3) Measurement of JAK3 Kinase-Inhibitory Activity
The activity of the compound of the present invention to inhibit the activity of JAK3 kinase was measured.
Among materials for the measurement of this inhibitory activity, a substrate peptide and a kinase protein were acquired as follows. As such a substrate peptide, a substrate peptide for QSS Assist™ JAK3-MSA assay kit (Carna Biosciences, Inc.) was purchased. As such a kinase protein, a purified recombinant human JAK3 protein (Carna Biosciences, Inc.) was purchased.
The method for measuring the inhibitory activity is as follows. First, a serial dilution of the compound of the present invention was prepared by the same method as that described in the above section regarding JAK1. This serial dilution solution (the final concentration of DMSO upon a kinase reaction: 5.0%) or DMSO (final concentration: 5.0%) was mixed with a solution containing the substrate peptide (final concentration: 1 μM), magnesium chloride (final concentration: 5 mM) and ATP (final concentration: 5 μM) in a buffer for kinase reaction (20 mM HEPES (pH 7.5), 2 mM dithiothreitol and 0.01% Triton X-100). Thereafter, a JAK3 protein was further added to the mixed solution, and the obtained mixture was then incubated at 25° C. for 80 minutes to carry out a kinase reaction. To the reaction solution, EDTA was added to a final concentration of 30 mM, so as to terminate the reaction. After termination of the reaction, the measurement and the data analysis were carried out by the same methods as those described in the above section regarding JAK1.

human PBMC = assay: IL-2-dependent growth of human peripheral blood mononuclear cells (PBMC); assay type: cell-based; settings: PHA-M pre-culture 3 days, IL-2 2 ng/mL, 2 days, CellTiter-Glo, read-out: PSMC IC50
Description: The activity of the compound of the present invention to inhibit the IL-2-dependent growth reaction of human PBMC, which is caused by JAK3, was measured (Arthritis Rheum. 2010; 62(8): 2283-93).
With a medium containing 10 μg/mL PHA-M (Sigma) (which is RPI-1640 (Sigma) containing 10% human serum type AB (MP Biomedicals)), human PBMC (C.T.L.) (cell density: 1×10^6 cells/mL) was cultured at 37° C. in a culture vessel containing 5% carbon dioxide for 3 days. Thereafter, the culture was washed with RPMI-1640 four times, and a medium (RPMI-1640 containing 10% human serum type AB) was then added to the resultant culture to prepare a cell suspension. The cells (1×10^4 cells per well) and the serially diluted compound of the present invention were added to each well of a 96-well U-bottom microplate, and thus obtained mixture was then cultured at 37° C. in a culture vessel containing 5% carbon dioxide for 30 minutes. After completion of the culture, recombinant human IL-2 (Peprotech) was added to the culture to a final concentration of 2 ng/mL, and the obtained mixture was then stirred at 37° C. in a culture vessel containing 5% carbon dioxide for 2 days (1×10^4 cells/100 μl/each well). After completion of the culture, the resultant was left at a room temperature for 30 minutes, and 100 μl of CellTiter-Glo Luminescent Cell Viability Assay (Promega) was then added to the resultant, followed by stirring it. Thereafter, the reaction mixture was left for 10 minutes, and the amount of a luminescence derived from living cells in each well was then measured with a microplate reader (TECAN). The inhibition rate of the compound to the cell growth caused by IL-2 stimulation was calculated, and the concentration of the compound capable of inhibiting 50% of the cell growth was defined as an […] value (nM).

Row | Compound | IC50 [1] | IC50 (human PBMC)
1 | C=CC(=O)NC1CCC=C(c2ccnc3[nH]cc(-c4ccco4)c23)C1 (stereo not drawn) [Compound 12, N-(3-(3-(Furan-2-yl)-1H-pyrrolo[2,3-b]pyridin-4-yl)cyclohex-3-en-1-yl)acrylamide] | < 0.3 nM | 123 nM
2 | C=CC(=O)NC1CCC=C(c2ccnc3[nH]cc(-c4ccccc4)c23)C1 (stereo not drawn) [Compound 1, N-(3-(3-Phenyl-1H-pyrrolo[2,3-b]pyridin-4-yl)cyclohex-3-en-1-yl)acrylamide] | < 0.3 nM | 216 nM
3 | C=CC(=O)NC1CCC=C(c2ccnc3[nH]cc(-c4cnco4)c23)C1 (stereo not drawn) [Compound 48, N-(3-(3-(Oxazol-5-yl)-1H-pyrrolo[2,3-b]pyridin-4-yl)cyclohex-3-en-1-yl)acrylamide] | < 0.3 nM | 114 nM
4 | C=CC(=O)NC1CCC=C(c2ccnc3[nH]cc(-c4nn(C)c(=O)o4)c23)C1 (stereo not drawn) [Compound 53, N-(3-(3-(4-Methyl-5-oxo-4,5-dihydro-1,3,4-oxadiazol-2-yl)-1H-pyrrolo[2,3-b]pyridin-4-yl)cyclohex-3-en-1-yl)acrylamide] | < 0.3 nM | 162 nM
5 | C=CC(=O)NC1CC=C(c2ccnc3[nH]cc(-c4nnco4)c23)C1 (stereo not drawn) [Compound 57, N-(3-(3-(1,3,4-Oxadiazol-2-yl)-1H-pyrrolo[2,3-b]pyridin-4-yl)cyclopent-3-en-1-yl)acrylamide] | 0.57 nM | 304 nM
6 | C=CC(=O)N[C@H]1CCC=C(c2ccnc3[nH]cc(-c4nnco4)c23)C1 [Compound 55, (S)—N-(3-(3-(1,3,4-Oxadiazol-2-yl)-1H-pyrrolo[2,3-b]pyridin-4-yl)cyclohex-3-en-1-yl)acrylamide] | < 0.3 nM | 34 nM
7 | C1=C(c2ccnc3[nH]ccc23)CCCC1 [Comparative Example 1, reference compound] | 250 nM | > 3000 nM
8 | Cc1nc(-c2c[nH]c3ncc(-c4ccccc4)cc23)cs1 [Comparative Example 3, 2-Methyl-4-(5-phenyl-1H-pyrrolo[2,3-b]pyridin-3-yl)thiazole, reference compound] | 460 nM | > 3000 nM
9 | C=CC(=O)N[C@H]1CCC=C(c2ccnc3[nH]cc(-c4ccno4)c23)C1 [Compound 59] | < 0.3 nM | 55 nM
10 | C=CC(=O)NC1CCC=C(c2ccnc3[nH]cc(-c4nnco4)c23)C1 (stereo not drawn) [Compound 49, N-(3-(3-(1,3,4-Oxadiazol-2-yl)-1H-pyrrolo[2,3-b]pyridin-4-yl)cyclohex-3-en-1-yl)acrylamide] | < 0.3 nM | 122 nM
11 | C=CC(=O)NC1CCC=C(c2ccnc3[nH]cc(-c4cn[nH]c4)c23)C1 (stereo not drawn) [Compound 3, N-(3-(3-(1H-Pyrazol-4-yl)-1H-pyrrolo[2,3-b]pyridin-4-yl)cyclohex-3-en-1-yl)acrylamide] | < 0.3 nM | 182 nM
12 | C=CC(=O)NC1CCC=C(c2ccnc3[nH]cc(-c4cccnc4OC)c23)C1 (stereo not drawn) [Compound 6, N-(3-(3-(2-Methoxypyridin-3-yl)-1H-pyrrolo[2,3-b]pyridin-4-yl)cyclohex-3-en-1-yl)acrylamide] | 0.42 nM | 181 nM
13 | C=CC(=O)NC1CCC=C(c2ccnc3[nH]cc(-c4cc(CO)co4)c23)C1 (stereo not drawn) [Compound 14, N-(3-(3-(4-(Hydroxymethyl)furan-2-yl)-1H-pyrrolo[2,3-b]pyridin-4-yl)cyclohex-3-en-1-yl)acrylamide] | < 0.3 nM | 114 nM
14 | C=CC(=O)NC1CCC=C(c2ccnc3[nH]cc(-c4nncs4)c23)C1 (stereo not drawn) [Compound 54] | 0.45 nM | 170 nM
15 | C=CC(=O)NC1CCC=C(c2ccnc3[nH]cc(-c4ccc(CO)o4)c23)C1 (stereo not drawn) [Compound 10, N-(3-(3-(5-(Hydroxymethyl)furan-2-yl)-1H-pyrrolo[2,3-b]pyridin-4-yl)cyclohex-3-en-1-yl)acrylamide] | < 0.3 nM | 136 nM
16 | C=CC(=O)NC1CCC=C(c2ccnc3[nH]cc(-c4ccc(F)nc4)c23)C1 (stereo not drawn) [Compound 37, N-(3-(3-(6-Fluoropyridin-3-yl)-1H-pyrrolo[2,3-b]pyridin-4-yl)cyclohex-3-en-1-yl)acrylamide] | < 0.3 nM | 159 nM
17 | C=CC(=O)NC1CCC=C(c2ccnc3[nH]cc(C4=CCOC4)c23)C1 (stereo not drawn) [Compound 34, N-(3-(3-(2,5-Dihydrofuran-3-yl)-1H-pyrrolo[2,3-b]pyridin-4-yl)cyclohex-3-en-1-yl)acrylamide] | < 0.3 nM | 82 nM
18 | C1=C(c2ccnc3[nH]ccc23)CCC1 [Comparative Example 2, 4-(Cyclopent-1-en-1-yl)-1H-pyrrolo[2,3-b]pyridine, reference compound] | 350 nM | > 3000 nM
